Results reported in patent US20140357655A1, “SPIROINDOLINE DERIVATIVES AS GONADOTROPIN- RELEASING HORMONE RECEPTOR ANTAGONISTS” (Bayer Intellectual Property GmbH, priority 2012, published 2014).

Target: T1, human GnRH receptor (Homo sapiens, UniProt P30968)
T1 sequence (P30968 1-328): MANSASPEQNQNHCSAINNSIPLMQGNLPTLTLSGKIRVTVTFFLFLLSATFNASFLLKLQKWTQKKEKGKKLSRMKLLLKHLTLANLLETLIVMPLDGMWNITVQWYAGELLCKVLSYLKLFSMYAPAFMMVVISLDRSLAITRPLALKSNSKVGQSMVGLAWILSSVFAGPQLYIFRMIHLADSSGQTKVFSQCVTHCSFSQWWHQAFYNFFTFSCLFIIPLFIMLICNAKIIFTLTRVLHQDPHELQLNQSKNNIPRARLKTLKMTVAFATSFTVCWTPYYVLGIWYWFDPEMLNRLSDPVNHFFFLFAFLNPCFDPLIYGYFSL
Test: IP-One HTRF assay with buserelin (at EC80) stimulation
Type: cell-based
Conditions: CHO cells stably expressing human GnRH receptor, read-out: Potency in IP-One HTRF assay, given as IC50
Method in brief: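 CHO cells stably expressing human GnRH receptor, preincubated 1 h at 37° C with IP1-d2, were exposed to compound and buserelin at EC80 for 1 h at 37° C. After lysis with Tb-anti-IP1 antibody (1 h, 22° C), 665/620 nm HTRF ratio read; 10 concentrations, 20 μM–1 nM, duplicates, 4-parameter IC50.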

Compound | IC50 [nM]
O=C(NCc1ncccc1Cl)c1ccc2c(c1)C1(CCS(=O)(=O)CC1)C(C1CC1)N2S(=O)(=O)c1ccc(F)cc1 (racemic) [Example 14, N-[(3-Chloropyridin-2-yl)methyl]-2-cyclopropyl-1-[(4-fluorophenyl)sulfonyl]-1,2,2′,3′,5′,6′-hexahydrospiro[indole-3,4′-thiopyran]-5-carboxamide 1′,1′-dioxide] | 245
O=C(Nc1ccon1)c1ccc2c(c1)C1(CCS(=O)(=O)CC1)C(C1CC1)N2S(=O)(=O)c1ccc(F)cc1 (single isomer, unassigned) [Example 63.1, 2-cyclopropyl-1-[(4-fluorophenyl)sulfonyl]-N-(1,2-oxazol-3-yl)-1,2,2′,3′,5′,6′-hexahydrospiro[indole-3,4′-thiopyran]-5-carboxamide 1′,1′-dioxide] | 88
COc1cccc(S(=O)(=O)N2c3ccc(C(=O)Nc4cccc(C(=O)O)c4)cc3C3(CCS(=O)(=O)CC3)C2C2CC2)c1 (stereo not shown) [Example 50, 3-[({2-cyclopropyl-1-[(3-methoxyphenyl)sulfonyl]-1′,1′-dioxido-1,2,2′,3′,5′,6′-hexahydrospiro[indole-3,4′-thiopyran]-5-yl}carbonyl)amino]benzoic acid] | 54
O=C(NCc1ccccc1C(F)F)c1ccc2c(c1)C1(CCS(=O)(=O)CC1)C(C1CC1)N2S(=O)(=O)c1ccc(OC(F)F)cc1 (stereo not shown) [Example 91, 2-cyclopropyl-1-{[4-(difluoromethoxy)phenyl]sulfonyl}-N-[2-(difluoromethyl)benzyl]-1,2,2′,3′,5′,6′-hexahydrospiro[indole-3,4′-thiopyran]-5-carboxamide 1′,1′-dioxide] | 5.9
O=C(NCc1ccccc1C(F)(F)F)c1ccc2c(c1)C1(CCS(=O)(=O)CC1)C(C1CC1)N2S(=O)(=O)c1ccc(F)cc1 (single isomer, unassigned) [Example 32.2, 2-cyclopropyl-1-[(4-fluorophenyl)sulfonyl]-N-[2-(trifluoromethyl)benzyl]-1,2,2′,3′,5′,6′-hexahydrospiro[indole-3,4′-thiopyran]-5-carboxamide 1′,1′-dioxide] | 1260
CN(C)C(=NS(=O)(=O)c1cccc(NC(=O)c2ccc3c(c2)C2(CCS(=O)(=O)CC2)C(C2CC2)N3S(=O)(=O)c2ccc(F)cc2)c1)N(C)C (single isomer, unassigned) [Example 64.2, N-(3-{[bis(dimethylamino)methylidene]sulfamoyl}phenyl)-2-cyclopropyl-1-[(4-fluorophenyl)sulfonyl]-1,2,2′,3′,5′,6′-hexahydrospiro[indole-3,4′-thiopyran]-5-carboxamide 1′,1′-dioxide] | 66
CN(C)C(=NS(=O)(=O)c1cccc(NC(=O)c2ccc3c(c2)C2(CCS(=O)(=O)CC2)C(C2CC2)N3S(=O)(=O)c2ccc(F)cc2)c1)N(C)C (single isomer, unassigned) [Example 64.1, N-(3-{[bis(dimethylamino)methylidene]sulfamoyl}phenyl)-2-cyclopropyl-1-[(4-fluorophenyl)sulfonyl]-1,2,2′,3′,5′,6′-hexahydrospiro[indole-3,4′-thiopyran]-5-carboxamide 1′,1′-dioxide] | 4.6
O=C(Nc1ccon1)c1ccc2c(c1)C1(CCS(=O)(=O)CC1)C(C1CC1)N2S(=O)(=O)c1ccc(F)cc1 (stereo not shown) [Example 63, 2-cyclopropyl-1-[(4-fluorophenyl)sulfonyl]-N-(1,2-oxazol-3-yl)-1,2,2′,3′,5′,6′-hexahydrospiro[indole-3,4′-thiopyran]-5-carboxamide 1′,1′-dioxide] | 325
CC1N(S(=O)(=O)c2ccc(F)cc2)c2ccc(C(=O)NCc3ccccc3C#N)cc2C12CCOCC2 (stereo not shown) [Example 8, N-(2-cyanobenzyl)-1-[(4-fluorophenyl)sulfonyl]-2-methyl-1,2,2′,3′,5′,6′-hexahydrospiro[indole-3,4′-pyran]-5-carboxamide] | 2510
NS(=O)(=O)c1cccc(NC(=O)c2ccc3c(c2)C2(CCS(=O)(=O)CC2)C(C2CC2)N3S(=O)(=O)c2ccc(F)cc2)c1 (stereo not shown) [Example 30, 2-cyclopropyl-1-[(4-fluorophenyl)sulfonyl]-N-(3-sulfamoylphenyl)-1,2,2′,3′,5′,6′-hexahydrospiro[indole-3,4′-thiopyran]-5-carboxamide 1′,1′-dioxide] | 245
NC(=O)c1ccc(S(=O)(=O)N2c3ccc(C(=O)Nc4cccc(S(=O)(=O)Nc5nccs5)c4)cc3C3(CCS(=O)(=O)CC3)C2C2CC2)cc1 (stereo not shown) [Example 96, 1-[(4-carbamoylphenyl)sulfonyl]-2-cyclopropyl-N-[3-(1,3-thiazol-2-ylsulfamoyl)phenyl]-1,2,2′,3′,5′,6′-hexahydrospiro[indole-3,4′-thiopyran]-5-carboxamide 1′,1′-dioxide] | 484
O=C(NCc1ccccc1Cl)c1ccc2c(c1)C1(CCS(=O)(=O)CC1)C(C1CC1)N2S(=O)(=O)c1cccc(OC(F)(F)F)c1 (stereo not shown) [Example 81, N-(2-chlorobenzyl)-2-cyclopropyl-1-{[3-(trifluoromethoxy)phenyl]sulfonyl}-1,2,2′,3′,5′,6′-hexahydrospiro[indole-3,4′-thiopyran]-5-carboxamide 1′,1′-dioxide] | 437
N#Cc1cccc(S(=O)(=O)N2c3ccc(C(=O)NCc4ncccc4C(F)(F)F)cc3C3(CCS(=O)(=O)CC3)C2C2CC2)c1 (stereo not shown) [Example 79, 1-[(3-cyanophenyl)sulfonyl]-2-cyclopropyl-N-{[3-(trifluoromethyl)pyridin-2-yl]methyl}-1,2,2′,3′,5′,6′-hexahydrospiro[indole-3,4′-thiopyran]-5-carboxamide 1′,1′-dioxide] | 64
O=C(NCc1ccccc1C(F)(F)F)c1ccc2c(c1)C1(CCS(=O)(=O)CC1)C(C1CC1)N2S(=O)(=O)c1ccc(F)cc1 (single isomer, unassigned) [Example 32.1, 2-cyclopropyl-1-[(4-fluorophenyl)sulfonyl]-N-[2-(trifluoromethyl)benzyl]-1,2,2′,3′,5′,6′-hexahydrospiro[indole-3,4′-thiopyran]-5-carboxamide 1′,1′-dioxide] | 34
N#Cc1ccc(S(=O)(=O)N2c3ccc(C(=O)NCc4ncccc4Cl)cc3C3(CCS(=O)(=O)CC3)C2C2CC2)cc1 (stereo not shown) [Example 70, N-[(3-chloropyridin-2-yl)methyl]-1-[(4-cyanophenyl)sulfonyl]-2-cyclopropyl-1,2,2′,3′,5′,6′-hexahydrospiro[indole-3,4′-thiopyran]-5-carboxamide 1′,1′-dioxide] | 63
COC(=O)c1cccc(NC(=O)c2ccc3c(c2)C2(CCS(=O)(=O)CC2)C(C2CC2)N3S(=O)(=O)c2cccc(OC(F)F)c2)c1 (single isomer, unassigned) [Example 89.2, methyl 3-{[(2-cyclopropyl-1-{[3-(difluoromethoxy)phenyl]sulfonyl}-1′,1′-dioxido-1,2,2′,3′,5′,6′-hexahydrospiro[indole-3,4′-thiopyran]-5-yl)carbonyl]amino}benzoate] | > 20000
COc1cccc(S(=O)(=O)N2c3ccc(C(=O)NCc4ccccc4Cl)cc3C3(CCS(=O)(=O)CC3)C2C2CC2)c1 (single isomer, unassigned) [Example 44.2, N-(2-chlorobenzyl)-2-cyclopropyl-1-[(3-methoxyphenyl)sulfonyl]-1,2,2′,3′,5′,6′-hexahydrospiro[indole-3,4′-thiopyran]-5-carboxamide 1′,1′-dioxide] | 302
O=C(NCc1ncccc1C(F)(F)F)c1ccc2c(c1)C1(CCS(=O)(=O)CC1)C(C1CC1)N2S(=O)(=O)c1ccc(F)cc1 (single isomer, unassigned) [Example 15.2, 2-cyclopropyl-1-[(4-fluorophenyl)sulfonyl]-N-{[3-(trifluoromethyl)pyridin-2-yl]methyl}-1,2,2′,3′,5′,6′-hexahydrospiro[indole-3,4′-thiopyran]-5-carboxamide 1′,1′-dioxide] | 69
O=C(NCc1ncccc1C(F)(F)F)c1ccc2c(c1)C1(CCS(=O)(=O)CC1)C(C1CC1)N2S(=O)(=O)c1cccc(OC(F)F)c1 (stereo not shown) [Example 87, 2-cyclopropyl-1-{[3-(difluoromethoxy)phenyl]sulfonyl}-N-{[3-(trifluoromethyl)pyridin-2-yl]methyl}-1,2,2′,3′,5′,6′-hexahydrospiro[indole-3,4′-thiopyran]-5-carboxamide 1′,1′-dioxide] | 143
CC1N(S(=O)(=O)c2ccc(F)cc2)c2ccc(C(=O)NCc3ncccc3Cl)cc2C12CCOCC2 (racemic) [Example 1, N-[(3-Chloropyridin-2-yl)methyl]-1-[(4-fluorophenyl)sulfonyl]-2-methyl-1,2,2′,3′,5′,6′-hexahydrospiro[indole-3,4′-pyran]-5-carboxamide] | 584
COC(=O)c1cccc(S(=O)(=O)N2c3ccc(C(=O)NCc4ccccc4Cl)cc3C3(CCS(=O)(=O)CC3)C2C2CC2)c1 (stereo not shown) [Example 60, methyl 3-({5-[(2-chlorobenzyl)carbamoyl]-2-cyclopropyl-1′,1′-dioxido-2′,3′,5′,6′-tetrahydrospiro[indole-3,4′-thiopyran]-1(2H)-yl}sulfonyl)benzoate] | 192
O=C(NCc1ncccc1C(F)(F)F)c1ccc2c(c1)C1(CCS(=O)(=O)CC1)C(C1CC1)N2S(=O)(=O)c1ccc(OC(F)F)cc1 (stereo not shown) [Example 93, 2-cyclopropyl-1-{[4-(difluoromethoxy)phenyl]sulfonyl}-N-{[3-(trifluoromethyl)pyridin-2-yl]methyl}-1,2,2′,3′,5′,6′-hexahydrospiro[indole-3,4′-thiopyran]-5-carboxamide 1′,1′-dioxide] | 53
